Legend:
[1] = target: cloned human H3 receptor, stably expressed in SK-N-MC cells (Homo sapiens, UniProt Q9Y5N1); experiment: H3 receptor binding
rat brain SERT = rat brain SERT (Rattus norvegicus, UniProt P31652); experiment: biochemical
Experimental: The supernatant was removed and re-centrifuged at 15,000 rpm for 30 min. […] Membranes were incubated with 0.6 nM [^3H]-Citalopram plus/minus test compounds for 60 min at 25° C. and harvested by rapid filtration over GF/C glass fiber filters (pretreated with 0.3% polyethylenimine) followed by four washes with ice-cold buffer. Nonspecific binding was defined in the presence of 100 μM fluoxetine.

human H3 receptor = human H3 receptor (Homo sapiens, UniProt Q9Y5N1); experiment: Cyclic AMP accumulation (reporter gene assay, SK-N-MC cells)
Experimental: Sublines of SK-N-MC cells were created that expressed a reporter construct and the human H3 receptor. The reporter gene (β-galactosidase) is under the control of multiple cyclic AMP responsive elements. In 96-well plates, histamine was added directly to the cell media followed 5 min later by an addition of forskolin (5 μM final concentration). When appropriate, antagonists were added 10 min prior to agonist addition. After a 6-h incubation at 37° C., the media was aspirated and the cells washed with 200 μL of phosphate-buffered saline followed by a second aspiration. […] Color was developed using 25 μL of 1 mg/mL substrate solution (chlorophenolred β-D galactopyranoside; Roche Molecular Biochemicals, Indianapolis, Ind.).

[2] = target: human SERT (HEK293 membranes) (Homo sapiens, UniProt P31645); experiment: biochemical
human SERT (HEK293 membranes), sequence (P31645 whole entry): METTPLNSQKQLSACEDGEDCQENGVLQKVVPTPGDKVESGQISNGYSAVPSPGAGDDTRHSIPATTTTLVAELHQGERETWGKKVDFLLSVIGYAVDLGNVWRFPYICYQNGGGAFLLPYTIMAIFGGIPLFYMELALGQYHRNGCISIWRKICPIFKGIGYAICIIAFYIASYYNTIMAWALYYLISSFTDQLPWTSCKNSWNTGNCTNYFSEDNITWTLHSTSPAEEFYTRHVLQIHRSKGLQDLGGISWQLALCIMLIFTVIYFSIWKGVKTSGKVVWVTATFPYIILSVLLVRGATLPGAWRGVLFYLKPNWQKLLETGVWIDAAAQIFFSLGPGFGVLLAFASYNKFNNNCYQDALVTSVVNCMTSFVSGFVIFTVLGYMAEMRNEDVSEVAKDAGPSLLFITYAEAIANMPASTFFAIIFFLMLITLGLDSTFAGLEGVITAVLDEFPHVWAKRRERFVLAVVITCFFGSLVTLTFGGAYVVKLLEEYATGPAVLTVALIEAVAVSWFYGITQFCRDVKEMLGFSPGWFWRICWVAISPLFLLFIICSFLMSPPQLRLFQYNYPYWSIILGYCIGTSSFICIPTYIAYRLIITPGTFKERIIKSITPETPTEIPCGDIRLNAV
Experimental: Homogenized HEK293 (Human Embryonic Kidney) membranes expressing the human SERT were incubated with ^3H-citalopram (SERT) at rt for 1 h in 50 mM Tris, 120 mM NaCl, 5 mM KCl (pH 7.4). Nonspecific binding was determined in the presence of 10 μM fluoxetine for the SERT. The membranes were washed and the radioactivity was counted as above.

rat brain SERT, sequence (P31652 whole entry): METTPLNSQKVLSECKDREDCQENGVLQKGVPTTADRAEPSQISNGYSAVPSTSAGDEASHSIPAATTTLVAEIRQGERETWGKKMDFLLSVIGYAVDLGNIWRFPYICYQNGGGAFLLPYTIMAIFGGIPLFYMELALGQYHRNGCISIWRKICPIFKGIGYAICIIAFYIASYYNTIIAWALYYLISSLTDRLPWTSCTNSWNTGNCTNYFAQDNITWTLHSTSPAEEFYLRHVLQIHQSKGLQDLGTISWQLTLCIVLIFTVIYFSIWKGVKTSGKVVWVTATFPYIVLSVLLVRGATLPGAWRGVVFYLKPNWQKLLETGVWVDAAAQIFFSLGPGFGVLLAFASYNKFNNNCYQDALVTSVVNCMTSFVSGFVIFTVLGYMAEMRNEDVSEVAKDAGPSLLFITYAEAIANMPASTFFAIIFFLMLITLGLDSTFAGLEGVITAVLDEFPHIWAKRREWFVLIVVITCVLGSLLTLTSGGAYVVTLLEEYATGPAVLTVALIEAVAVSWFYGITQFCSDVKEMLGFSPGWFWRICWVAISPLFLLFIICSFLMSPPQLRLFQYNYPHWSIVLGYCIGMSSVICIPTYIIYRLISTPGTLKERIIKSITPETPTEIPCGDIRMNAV
cloned human H3 receptor, stably expressed in SK-N-MC cells, sequence (Q9Y5N1 whole entry): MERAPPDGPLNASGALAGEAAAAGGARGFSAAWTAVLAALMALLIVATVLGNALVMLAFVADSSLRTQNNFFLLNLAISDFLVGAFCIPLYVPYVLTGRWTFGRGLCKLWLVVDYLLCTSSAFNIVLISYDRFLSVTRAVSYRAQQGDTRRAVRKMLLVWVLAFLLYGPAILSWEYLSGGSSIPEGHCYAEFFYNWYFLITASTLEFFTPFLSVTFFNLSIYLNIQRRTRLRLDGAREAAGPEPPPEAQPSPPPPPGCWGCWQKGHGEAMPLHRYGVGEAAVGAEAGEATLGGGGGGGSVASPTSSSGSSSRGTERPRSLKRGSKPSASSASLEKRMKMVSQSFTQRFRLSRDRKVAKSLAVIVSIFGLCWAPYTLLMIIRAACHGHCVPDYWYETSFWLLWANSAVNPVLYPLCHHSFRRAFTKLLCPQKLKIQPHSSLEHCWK
human H3 receptor, sequence (Q9Y5N1 whole entry): as above

Structure (SMILES)	Ki [1] [nM]	Ki (rat brain SERT) [nM]	Kb (human H3 receptor) [nM]	Ki [2] [nM]
CC(C)N1CCCN(C(=O)c2ccc(CN3CCCCC3)c(OCc3ccccc3)c2)CC1 [Example 50, (3-Benzyloxy-4-piperidin-1-ylmethyl-phenyl)-(4-isopropyl-[1,4]diazepan-1-yl)-methanone]	9	–	–	–
CNCc1ccc(C(=O)N2CCCN(C3CC3)CC2)cc1Oc1ccc(Cl)c(Cl)c1 [Example 52, (4-Cyclopropyl-[1,4]diazepan-1-yl)-[3-(3,4-dichloro-phenoxy)-4-methylaminomethyl-phenyl]-methanone]	6	17	–	–
O=C(c1ccc(CN2CCOCC2)c(Oc2cccnc2)c1)N1CCCN(C2CC2)CC1 [Example 51, (4-Cyclopropyl-[1,4]diazepan-1-yl)-[4-morpholin-4-ylmethyl-3-(pyridin-3-yloxy)-phenyl]-methanone]	3	–	–	–
CNCc1cc(C(=O)N2CCCN(C3CC3)CC2)ccc1Sc1ccc(Cl)cc1 [Example 37, [4-(4-Chloro-phenylsulfanyl)-3-methylaminomethyl-phenyl]-(4-cyclopropyl-[1,4]diazepan-1-yl)-methanone]	2	5	–	–
CNCc1cc(C(=O)N2CCCN(C3CC3)CC2)ccc1Sc1ccccn1 [Example 38, (4-Cyclopropyl-[1,4]diazepan-1-yl)-[3-methylaminomethyl-4-(pyridin-2-ylsulfanyl)-phenyl]-methanone]	2	5000	–	–
Cc1ccc(Oc2ccc(C(=O)N3CCCN(C4CC4)CC3)cc2CN(C)C)cn1 [Example 36, (4-Cyclopropyl-[1,4]diazepan-1-yl)-[3-dimethylaminomethyl-4-(6-methyl-pyridin-3-yloxy)-phenyl]-methanone]	2	59	–	–
O=C(c1ccc(CNC2CC2)c(Oc2cccnc2)c1)N1CCCN(C2CC2)CC1 [Example 40, [4-Cyclopropylaminomethyl-3-(pyridin-3-yloxy)-phenyl]-(4-cyclopropyl-[1,4]diazepan-1-yl)-methanone]	2	5000	0.501	–
CNCc1cc(C(=O)N2CCCN(C3CC3)CC2)ccc1Oc1ccc(F)cc1Cl [Example 33, [4-(2-Chloro-4-fluoro-phenoxy)-3-methylaminomethyl-phenyl]-(4-cyclopropyl-[1,4]diazepan-1-yl)-methanone]	0.9	28	–	–
CNCc1cc(C(=O)N2CCCN(C3CC3)CC2)ccc1OCc1ccc(Cl)c(Cl)c1 [Example 42, (4-Cyclopropyl-[1,4]diazepan-1-yl)-[4-(3,4-dichloro-benzyloxy)-3-methylaminomethyl-phenyl]-methanone]	4	2	–	–
CNCc1cc(C(=O)N2CCCN(C3CC3)CC2)ccc1Oc1cccc(Cl)c1Cl [Example 35, (4-Cyclopropyl-[1,4]diazepan-1-yl)-[4-(2,3-dichloro-phenoxy)-3-methylaminomethyl-phenyl]-methanone]	2	15	–	–
COCCN(CCOC)Cc1ccc(C(=O)N2CCCN(C3CC3)CC2)cc1OCc1ccccc1 [Example 54, (3-Benzyloxy-4-{[bis-(2-methoxy-ethyl)-amino]-methyl}-phenyl)-(4-cyclopropyl-[1,4]diazepan-1-yl)-methanone]	2	–	–	–
CC(C)N1CCCN(C(=O)c2ccc(CN3CCOC(CO)C3)c(Oc3ccccc3)c2)CC1 (stereo not shown) [Example 53, [4-(2-Hydroxymethyl-morpholin-4-ylmethyl)-3-phenoxy-phenyl]-(4-isopropyl-[1,4]diazepan-1-yl)-methanone]	3	–	–	–
CNCc1cc(C(=O)N2CCCN(C3CCC3)CC2)ccc1Oc1ccc(Cl)c(Cl)c1 [Example 48, (4-Cyclobutyl-[1,4]diazepan-1-yl)-[4-(3,4-dichloro-phenoxy)-3-methylaminomethyl-phenyl]-methanone]	5.2	7.9	–	9.8
CNCc1cc(C(=O)N2CCCN(C3CC3)CC2)ccc1Oc1ccccn1 [Example 39, (4-Cyclopropyl-[1,4]diazepan-1-yl)-[3-methylaminomethyl-4-(pyridin-2-yloxy)-phenyl]-methanone]	0.9	15	–	–
O=C(c1ccc(CN2CCCCC2)c(Oc2cccnc2)c1)N1CCCN(C2CC2)CC1 [Example 41, (4-Cyclopropyl-[1,4]diazepan-1-yl)-[4-piperidin-1-ylmethyl-3-(pyridin-3-yloxy)-phenyl]-methanone]	1	10000	0.0631	–
CNCc1cc(C(=O)N2CCCN(C3CC3)CC2)ccc1Sc1cc(C(F)(F)F)ccn1 [Example 47, (4-Cyclopropyl-[1,4]diazepan-1-yl)-[3-methylaminomethyl-4-(4-trifluoromethyl-pyridin-2-ylsulfanyl)-phenyl]-methanone]	4	410	–	–
CN(Cc1cc(C(=O)N2CCCN(C3CC3)CC2)ccc1Oc1ccc(Cl)cc1)C1CC1 [Example 34, {4-(4-Chloro-phenoxy)-3-[(cyclopropyl-methyl-amino)-methyl]-phenyl}-(4-cyclopropyl-[1,4]diazepan-1-yl)-methanone]	2	62	–	–
CNCc1cc(C(=O)N2CCCN(C3CC3)CC2)ccc1Oc1cccc(F)c1F [Example 32, (4-Cyclopropyl-[1,4]diazepan-1-yl)-[4-(2,3-difluoro-phenoxy)-3-methylaminomethyl-phenyl]-methanone]	0.6	31	–	–
Cc1ccc(Oc2cc(C(=O)N3CCCN(C(C)C)CC3)ccc2CN(C)C)c(C)n1 [Example 49, [4-Dimethylaminomethyl-3-(2,6-dimethyl-pyridin-3-yloxy)-phenyl]-(4-isopropyl-[1,4]diazepan-1-yl)-methanone]	11	2000	–	–
